Test results taken from patent US11981626B1, “Compound embodiments for hydrogen sulfide production and methods of making and using the same” (University of Oregon, priority 2018, dated 2024).

Tests used:
[1] = H2S production measured by methylene blue (MB) assay in PBS containing BSA and CA; assay type: physicochemical; details: 37° C.
Method: Using the same conditions, H2S production was measured at different time points using the MB assay (FIG. 5A, curve labeled with the “▾” symbol). The MB assay allows for H2S quantification from the reaction of H2S with N,N-dimethyl-p-phenylenediamine in the presence of FeCl3 and acid to produce methylene blue (MB, λmax=670). In the MB assay, a γ-KetoTCM-1 stock solution (100 μL, 10.0 mM in DMSO) was added to 20.0 mL of PBS (pH 7.40, 10.0 mM) containing BSA (5.00 mg/mL) and CA (25.0 μg/mL) in a 25-mL scintillation vial at 37° C. Next, 0.300 mL aliquots of the reaction mixture were transferred to UV cuvettes containing 0.300 mL of MB cocktail at different time points. The MB reaction mixture was incubated at room temperature for 1 hour and the precipitate was removed using syringe filters. The absorbance at 670 nm was then measured and was converted to H2S concentration by using the H2S calibration curve in FIG. 6. […] The MB solution was allowed to react with H2S for 1 hour before measuring the absorbance at 670 nm.
The linearity between these two methods was lost after 60 minutes due to the oxidation of H2S in the MB assay at extended incubation times (FIG. 5A). […] The absorbance at 670 nm was then measured and converted to H2S concentration by using the H2S calibration curve in FIG. 6. […]

[2] = COS/H2S release monitored by PNA formation (UV-Vis) in PBS containing BSA and CA; assay type: physicochemical
Method: In this example, compound activation and subsequent COS/H2S release in PBS containing bovine serum albumin (BSA) was evaluated to mimic a complex biological environment. γ-KetoTCM-1 (50 μM) was incubated in PBS (pH 7.4, 10 mM) containing BSA (5 mg/mL) and CA (25 μg/mL) at 37° C. In particular, A γ-KetoTCM-1 stock solution (15.0 μl_, 10.0 mM in DMSO) was added to 3.00 mL of PBS (pH 7.40, 10.0 mM) containing BSA (5.00 mg/mL) and CA (25.0 μg/mL) in a quartz UV cuvette. The absorbance (250-500 nm) was measured and recorded by using an Agilent Cary 100 UV-Vis spectrometer at 37° C.

[3] = tested on: macrophage RAW 264.7 cells; test: LPS-induced NO2− formation in macrophage RAW 264.7 cells (Griess); assay type: cell-based; details: 25 μM pretreatment 6 hours, LPS 1.0 μg/mL 18 hours
Method: In this example, the ability of embodiments of the disclosed donor compound to provide anti-inflammatory activity was evaluated. To investigate the potential protective effects of the developed donors, pretreated macrophage RAW 264.7 cells were pretreated with γ-KetoTCM-1 (25 μM) for 6 hours, followed by an 18-hour incubation with lipopolysaccharide (LPS, 1.0 μg/mL) to induce an inflammatory response. This response is accompanied by an increase in NO production, which was monitored by measuring nitrite (NO2−) accumulation. To determine whether the observed effects were due to COS/H2S release, control experiments with γ-KetoTCM-3, γ-KetoCM-1, and GYY4137 under the identical condition also were performed. GYY4137 was used as a positive control because it has shown anti-inflammatory effects previously, and because it generates a slow, continuous release of H2S.
In this example, macrophage RAW 264.7 cells were seeded in a 24-well plate (5×10^5 cells/well) containing 0.50 mL of DMEM and incubated at 37° C. under 5% CO2 for 24 hours. The confluent cells were washed with PBS and incubated with either γ-KetoTCM-1, γ-KetoTCM-3, γ-KetoCM-1, or GYY4137 (25.0 μM) at 37° C. for 6 hours. Compounds were then removed by washing cells with PBS and these pretreated cells were incubated in FBS-free DMEM containing LPS (1.00 μg/mL) for 18 hours. NO2− levels were measured by using a Griess Reagent Kit.

[4] = Effects of cellular nucleophiles on COS/H2S release (PNA formation, UV-vis); assay type: physicochemical; details: PBS pH 7.4, Cys, NAC, Hcy, GSH, Lys, Ser, Gly, GSSG, 4-hour incubation, 37° C.
Method: To determine the effects of cellular nucleophiles on COS/H2S release, γ-KetoTCM-1 was incubated in […] PBS buffer (pH 7.4, 10 mM) containing (1) no cellular nucleophile (FIG. 4, bar 1); or 250 μM of Cys (FIG. 4, bar 2), 250 μM of N-acetyl cysteine (NAC) (FIG. 4, bar 3), 250 μM of homocysteine (Hcy) (FIG. 4, bar 4), 250 μM of GSH […] (FIG. 4, bar 5), 250 μM of lysine (Lys) (FIG. 4, bar 6), 250 μM of serine (Ser) (FIG. 4, bar 7), 250 μM of glycine (Gly) (FIG. 4, bar 8), or 250 μM of oxidized glutathione (GSSG) (FIG. 4, bar 9) at 37° C. PNA formation was monitored and recorded after a 4-hour incubation using UV-vis spectroscopy.

[5] = COS/H2S release monitored by PNA formation (UV-Vis) in PBS containing CA; assay type: physicochemical; details: for half-life at 50 μM: PBS containing carbonic anhydrase (CA); for half-life at 50 μM / kobs (COS/H2S releasing kinetics): 37° C.; for kobs (COS/H2S releasing kinetics): CA 25 μg/mL, 50 μM; for krel: relative to γ-KetoTCM-1 at pH 7.4
Method: To investigate COS/H2S release from donor compound embodiments, γ-KetoTCM-1 (50 μM) was incubated in PBS (pH 7.4, 10 mM) containing CA (25 μg/mL) and H2S release was detected by monitoring para-nitroaniline (PNA) formation at 37° C. In particular, a γ-KetoTCM-1 stock solution (15.0 μL, 10.0 mM in DMSO) was added to 3.00 mL of PBS (pH 6.00, 7.40 or 8.00, 10.0 mM) containing CA (25.0 μg/mL) in a quartz UV cuvette. The absorbance (250-500 nm) was measured and recorded by using Agilent Cary 100 or Cary 60 UV-Vis spectrometers at 37° C. kobs was then obtained by plotting the absorbance ratio of PNA and γ-KetoTCM-1 versus time and t1/2 was calculated by dividing In(2) by kobs.
In this example, pH effects on COS/H2S release were investigated by incubating γ-KetoTCM-1 (50 μM) in PBS (pH 6.0-8.0) and monitoring with a UV-Vis spectrometer. […] In particular, a γ-KetoTCM-1 stock solution (15.0 μL, 10.0 mM in DMSO) was added to 3.00 mL of PBS (pH 6.00, 10.0 mM) containing CA (25.0 μg/mL) in a 3-mL UV cuvette. The absorbance (250-500 nm) was measured and recorded at 37° C. kobs was then obtained by plotting the absorbance ratio of PNA and γ-KetoTCM-1 vs time.

HeLa cells = test: H2S delivery in HeLa cells imaged with SF7-AM fluorescent probe; assay type: cell-based; details: 100 μM, 2 hours
Method: In this example, it was evaluated whether γ-KetoTCM-based donors can be activated to deliver H2S in cellular environments. SF7-AM, a cell-trappable H2S fluorescent probe, was used to monitor H2S accumulation from γ-KetoTCM-1 in HeLa cells. In the absence of γ-KetoTCM-1, no fluorescent signal from SF7-AM was observed, indicating negligible endogenous H2S (FIG. 9, left column, including the top and bottom images).
HeLa cells were plated in poly-D-lysine coated plates (MatTek) containing 2.00 mL of DMEM and incubated at 37° C. under 5% CO2 for 24 hours. The confluent cells were washed with PBS and then co-incubated with SF7-AM (5.00 μM) and NucBlue nuclear dye (2 drops) for 30 minutes. The cells were then washed with PBS and incubated with either γ-KetoTCM-1 (100 μM) or γ-KetoCM-1 (100 μM) alone for 2 hours. Prior to imaging, the cells were washed with PBS and bathed in 2.00 mL of PBS. Cell imaging was performed on a Leica DMi8 fluorescent microscope.

[6] = H2S release observed with an H2S electrode at different pH; assay type: physicochemical; details: PBS pH 6.0-8.0
Text: H2S release was also observed by using an H2S electrode, confirming that H2S was released in this system and such H2S release was pH-dependent (FIGS. 3A and 3B). This example therefore establishes that COS/H2S release from compound embodiments of the present disclosure can be pH dependent.

With `CC(=O)CCOC(=S)Nc1ccc([N+](=O)[O-])cc1` [γ-KetoTCM-1] the H2S release efficiency ([1]; MB assay, 50 μM, PBS pH 7.4, BSA) was 70%, the “pseudo first-order rate constant kobs from fitting the MB data” value ([1]; PBS pH 7.4, BSA 5 mg/mL, up to plateau (~60 minutes)) was 8.6±0.9 ×10^−4 s^−1 and the half-life at 50 μM ([2]; PBS containing BSA and carbonic anhydrase (CA), pH 7.4 PBS containing BSA (5 mg/mL), 37° C.) was 14.4 ± 0.6 min. The “pseudo first-order rate constant kobs from fitting the UV-vis data” value ([2]; PBS pH 7.4, BSA 5 mg/mL, CA, 37° C.) was 8.1±0.3 ×10^−4 s^−1, the “kobs (COS/H2S releasing kinetics)” value ([2]; pH 7.4 PBS containing BSA (5 mg/mL), CA, 37° C.) was 81.0 ± 3.0 ×10^−5 s^−1 and the krel ([2]; pH 7.4 PBS containing BSA (5 mg/mL), relative to pH 7.4 without BSA) was 18.0. For the same molecule, the “effect on LPS-induced NO2− production” value [3] was “significantly reduced”, the “PNA formation in presence of cellular nucleophiles versus background” value [4] was “None of the tested nucleophiles resulted in substantial PNA formation” and the half-life at 50 μM ([5]; pH 6, pH 6.0 PBS, ln(2)/kobs) was 3040 ± 48 min. The half-life at 50 μM ([5]; pH 7.4, pH 7.4 PBS, ln(2)/kobs) was 256 min, the half-life at 50 μM ([5]; pH 8, pH 8.0 PBS) was 91.8 ± 1.8 min and the “kobs (COS/H2S releasing kinetics)” value ([5]; pH 6.0 PBS) was 0.380 ± 0.006 ×10^−5 s^−1. The krel ([5]; pH 6.0 PBS) was 0.084, the “kobs (COS/H2S releasing kinetics)” value ([5]; pH 7.4 PBS) was 4.52±0.02 ×10^−5 s^−1 and the krel ([5]; pH 7.4 PBS) was 1.00. The “kobs (COS/H2S releasing kinetics)” value ([5]; pH 8.0 PBS) was 12.6 ± 0.2 ×10^−5 s^−1, the krel ([5]; pH 8.0 PBS) was 2.79 and the “SF7-AM fluorescence (H2S accumulation)” value (HeLa cells) was “significant increase in SF7-AM fluorescence”. The “H2S release by H2S electrode” value [6] was “pH-dependent”.
In the case of `CC(=O)C(C)(C)COC(=S)Nc1ccc([N+](=O)[O-])cc1` [γ-KetoTCM-3], the “effect on LPS-induced NO2− production” value [3] is reported as “modest reduction” and the “PNA released in PBS buffer (indicating COS/H2S release)” value ([5]; PBS pH 7.4, 37° C.) is reported as “negligible”.
For `CC(=O)C(C)COC(=S)Nc1ccc([N+](=O)[O-])cc1` (stereo not drawn) [γ-KetoTCM-2], the half-life at 50 μM ([5]; pH 7.4, pH 7.4 PBS, ln(2)/kobs) was 1550 min, the “kobs (COS/H2S releasing kinetics)” value ([5]; pH 7.4 PBS) was 0.82 ± 0.02 ×10^−5 s^−1 and the krel ([5]; pH 7.4 PBS) was 0.188.
For `C1COCCN1.COc1ccc(P(=S)(S)N2CCOCC2)cc1` (stereo not drawn) [GYY4137, reference compound], the “effect on LPS-induced NO2− production” value [3] was “less pronounced effect”.
For `CC(=O)CCOC(=O)Nc1ccc([N+](=O)[O-])cc1` [γ-KetoCM-1], the “effect on LPS-induced NO2− production” value [3] was “reduced NO2− levels, although to a lesser extent than γ-KetoTCM-1”, the half-life at 50 μM ([5]; pH 7.4, pH 7.4 PBS, ln(2)/kobs) was 804 ± 18 min and the “kobs (COS/H2S releasing kinetics)” value ([5]; pH 7.4 PBS) was 1.44 ± 0.03 ×10^−5 s^−1. The krel ([5]; pH 7.4 PBS) was 0.32 and the “SF7-AM fluorescence (H2S accumulation)” value (HeLa cells) was “failed to provide a SF7-AM signal”.
